# Measurements from paper PMC12040169 (PLOS Biology, 2025).
# Assay: in vitro
# Conditions: human, hela cells, % viability
row,Structure (SMILES),"viability at 28.5 h, 10 µM"
1,Cc1ccc(NC(=S)N2CCCC2C(=O)O)c(C)c1 (stereo not shown) [CBK007148],79.3%
2,CCCCCn1c(O)nnc1SCc1csc(CS(=O)(=O)c2ccc(Cl)cc2)n1 [CBK007176],80.7%
3,COc1ccc(OCCN2C(=O)CNC2=S)cc1 [CBK007177],77%
4,CC(C)(C)Oc1nc(=O)[nH]c(=O)[nH]1 [CBK007194],98.3%
5,CC(=O)N1c2ccccc2N(C(C)=O)C1c1ccc(C2N(C(C)=O)c3ccccc3N2C(C)=O)[nH]1 [CBK007216],110%
6,CC(=O)N1c2ccccc2C(C)=CC1C1CCCC(=O)C1 (stereo not shown) [CBK007219],101%
7,O/N=C1\CSCc2ncccc21 [CBK007234],90.1%
8,FC(F)(F)c1cnc(Sc2c[nH]nn2)c(Cl)c1 [CBK007252],93.3%
9,Cc1ccc(O)cc1CC[C@@H]1CC(=O)CC2(C)C1CC[C@]2(O)C(=O)COC(=O)CCC(=O)O (stereo partly shown) [CBK007270],119%
10,COc1ccc(C2CNC(=O)N2C(=O)OC(C)(C)C)cc1OC1CCCC1 (stereo not shown) [CBK007281],93.8%
11,CCN1CCCC1CNc1c(Cl)c(Cl)nc2c1c(=O)n(C)c(=O)n2C (stereo not shown) [CBK007287],97.2%
12,CCOC(=O)c1c(NC(=O)CSc2nnnn2C)sc2c1CCCC2 [CBK007332],103%
13,C(=N\Nc1nnnn1-c1ccccc1)/c1ccco1 [CBK007334],109%
14,CC(C)(C)NC(=O)N1CCC(=O)N1 [CBK007341],95.9%
15,N#Cc1c(-c2ccccc2)noc1C/C=N/O [CBK007357],87.7%
16,CCOC(=O)c1cnc2nc(N3CCOCC3)nn2c1N [CBK007371],96.2%
17,COc1ccc(C(=O)NCC(=O)NCCOC(=O)c2c(-c3c(F)cccc3Cl)noc2C)cc1 [CBK007386],99.4%
18,Cn1nc(C(F)(F)F)c(C#N)c1Oc1ccc(C(C)(C)C)cc1 [CBK007398],95.7%
19,COC(=O)C1ON2CCCCC2C1(O)C(F)(F)F (stereo not shown) [CBK007430],90.6%
20,Oc1noc(O)c1-c1ncc(C(F)(F)F)cc1Cl [CBK007439],91.1%
21,CCOCCC(=O)N/N=C(/C)c1ccc(Cl)s1 [CBK007454],94.8%

row,Structure (SMILES),"viability at 28.5 h, 10 µM"
1,CCCc1c(OCCCCc2nnn[nH]2)ccc(C(C)=O)c1O [CBK007468],90.4%
2,CN(CC#CCN1CCCC1)C(=O)CNC(=O)OC(C)(C)C [CBK007489],111%
3,c1coc(-c2nc3n(n2)CCS3)c1 [CBK007565],84.7%
4,OC(COc1cccc2ccccc12)CN1CCN(C(c2ccccc2)c2ccccc2)CC1 (stereo not shown) [CBK007591],93.1%
5,COc1cc(C(=O)N2CCN(c3cc(C(C)C)ccc(CO)c3=O)CC2)cc(OC)c1OC [CBK007673],91%
6,CCC(C)(C)N1CC(=O)N=C1NCCc1ccc(S(N)(=O)=O)cc1 [CBK007750],89.6%
7,Nc1cccnc1OCCN1CCN(CC(=O)N2CCCCc3ccccc32)CC1 [CBK007764],95.1%
8,Cn1c(N2CCOCC2)cc(=O)c2ccccc21 [CBK007775],93.7%
9,CC1(C)CC(=O)C2=C(C1)OC(=O)CC2c1ccc(Cl)cc1Cl (stereo not shown) [CBK007777],93.8%
10,CCCN1C[C@@H](O)C[C@H]2[C@H](O)[C@@H]1c1ccccc1N2C(=O)OC [CBK007809],91.8%
11,O=c1cc(CN2CCOCC2)oc2c(OCc3nnnn3C3CC3)cccc12 [CBK007813],101%
12,CC(C)=NOc1ncccc1C#N [CBK007841],115%
13,CC(C)Nc1cccnc1N1CCN(C(=O)c2cc3cc(NC(=O)N4CCOCC4)ccc3[nH]2)CC1 [CBK007872],96.2%
14,CN1CCCc2c1oc1c(OCc3cccnc3)cccc1c2=O [CBK007904],92.1%
15,COc1cc(=O)n(C)c(C)n1 [CBK007924],91%
16,C[C@@H]1C(=O)Nc2ccc(F)cc2N1C(=O)N1CCCC1 [CBK007936],96%
17,CN(C)C1Cc2cccc3nc(S(C)(=O)=O)n(c23)C1 (stereo not shown) [CBK007942],94.8%
18,Nc1cc(Cl)nc(SCC2CCCCC2)n1 [CBK007970],93.2%
19,CC(C)(C)OC(=O)NCC(N)=S [CBK007979],100%
20,CC(c1cc2ccccc2s1)N(O)C(N)=O (stereo not shown) [CBK008078],98.2%
21,CC1(c2ccccc2)NC(NC2CCCCC2)=NC1=O (stereo not shown) [CBK008081],97.3%

row,Structure (SMILES),"viability at 28.5 h, 10 µM"
1,O=c1c2cc(Cl)ccc2sc2ncccc12 [CBK008118],97.4%
2,CC(=O)NCC1CC(=O)N(c2ccc(Br)cc2)C1 (stereo not shown) [CBK008134],109%
3,CC(C)(C)OC(=O)N[C@@H]1C(=O)OC(C(O)CO)[C@@H]1O (stereo partly shown) [CBK008178],118%
4,c1ccc(-c2cnc(C3CCCCC3)o2)cc1 [CBK008192],83.1%
5,O=C(c1ccccc1)c1nnsc1-c1ccccc1 [CBK008193],97%
6,O=c1cc(N2CCOCC2)oc2ccccc12 [CBK008244G],71.5%
7,CN(C)CC(=O)N/N=C/c1ccsc1 [CBK008256C],110%
8,C/C(=N/NC(=O)C[N+](C)(C)C)c1nn(-c2ccc(Cl)cc2)nc1C [CBK008258C],100%
9,Nc1c2c(nc3ccccc13)CCCC2O (stereo not shown) [CBK008271F],95.7%
10,CC(C#CCN(C)C)N1C(=O)CCC1C (stereo not shown) [CBK008291G],109%
11,S=c1[nH]nc2ccc(N3CCOCC3)nn12 [CBK008327],101%
12,CCOC(=O)NC(=O)C(C#N)/C=N/NC(=O)CCCNc1ncc(C(F)(F)F)cc1Cl (stereo not shown) [CBK008354],101%
13,O=S(=O)(NCCNc1ncc(C(F)(F)F)cc1Cl)C(F)(F)F [CBK008366],109%
14,CC(=O)C(C)Oc1ncn(-c2ccccc2)n1 (stereo not shown) [CBK008377],101%
15,O=C(O)CCCc1nc(-c2cnc3n(c2=O)CCS3)no1 [CBK008438],90.1%
16,Cc1nnsc1C(=O)N1CCN(c2cc(C(F)(F)F)ccn2)CC1 [CBK008467],86.4%
17,Oc1cc(C(F)(F)F)nc2[nH]nc(-c3cccs3)c12 [CBK008498],106%
18,Cc1ccc(Cl)cc1Nc1nc2nc(C)c(NCC3CC3)cn2n1 [CBK008522],105%
19,CCCS(=O)(=O)c1ccc(NC(=O)Nc2ccc(Cl)cc2Cl)cc1 [CBK008564],76.1%
20,NCc1ccc(C(=O)N(CCc2cc(C(F)(F)F)cc(C(F)(F)F)c2)c2ccc(Cl)c(Cl)c2)cc1 [CBK008632T],112%
21,CC1=NC2c3ccsc3C=CC2S1 (stereo not shown) [CBK008720],112%

row,Structure (SMILES),"viability at 28.5 h, 10 µM"
1,CC1(C)O[C@@H]2O[C@@H](C(O)CNC(=O)c3ccccc3)[C@@H](NC(=O)c3ccccc3)[C@@H]2O1 (stereo partly shown) [CBK008727],101%
2,Cc1n[nH]c(=O)c2nc(-c3ccc(=O)[nH]n3)[nH]c12 [CBK008745],102%
3,COc1ccc(NC(=O)N(CCO)C2CCCCC2)c(OC)c1 [CBK008768],90.9%
4,COc1cc2c(cc1OC)C(CCCC#N)=[N+](C)C(C)(C)C2 [CBK008807I],97.9%
5,CC(C)(C)NCC(O)COc1cccc2c3c(oc12)CCCC3 (stereo not shown) [CBK008871C],90.2%
6,CCCCN1C(=S)SC(C)(C)C1N(O)C(=O)C1CCCCC1 (stereo not shown) [CBK008915],95.6%
7,c1ccc(-c2ccc(COc3cncc(N4CCNCC4)n3)s2)nc1 [CBK008960G],85.4%
8,COc1ccc(C2(CNC(C)(C)CN)CCCC2)cc1OC [CBK008989],104%
9,N#CCCN(C1CCCCC1)S(=O)(=O)c1cccc2nsnc12 [CBK009093],94%
10,CCC1=NNC(=O)C(CC(=O)Nc2ccccc2)c2cc(OC)c(OC)cc21 (stereo not shown) [CBK009158],92.4%
11,Cc1csc2c(N3CCSCC3)ncnc12 [CBK009169],100%
12,CCCCOc1ccc(Sc2nc(C)cc(C)n2)cc1 [CBK009219],92.1%
13,Nc1ncn(CC(O)CO)c2nc(N3CCOCC3)nc1-2 (stereo not shown) [CBK009231],90.8%
14,CC1(C)C(CC(=O)NC2CCCCC2)CC1C(=O)NC1CCCCC1 (stereo not shown) [CBK009260],98.8%
15,CC(C)c1cccc2c1OC(C(C)C)C(=O)N2 (stereo not shown) [CBK009286],85.2%
16,N#Cc1ccc(S(=O)(=O)NC2CCCCNC2=O)cc1 (stereo not shown) [CBK009293],102%
17,O=C1NC2CS(=O)(=O)CC2N1Cc1ccccc1 (stereo not shown) [CBK009306],85.7%
18,CCOC(=O)CSC1=NNC(C)(c2c(O)c3ccccc3n(CC)c2=O)N1 (stereo not shown) [CBK009370],92.5%
19,O=C(CSc1ccc(Cl)cc1)NCCCN1CCOCC1 [CBK009390],99.6%
20,Nc1nc(N)c(Cc2ccc(Cl)cc2Cl)c(N)n1 [CBK009425],94.7%
21,COc1cc(CO)c(-c2c[nH][nH]c2=O)cc1OC [CBK009476],85.5%

# Same assay, conditions: human, hela cells, % viability, bulk resorufin, single well
row,Structure (SMILES),"viability at 28.5 h, 10 µM"
1,COc1cccc2c1OCCC2CNCCCc1ccccc1 (stereo not shown) [CBK007716],91.8%
